Results published in patent US20250154607A1, “ISOTHERMAL AMPLIFICATION OF PATHOGENS” (priority 2021, published 2025).
Values after ≈ are worked out from the molar mass of the structure shown.

Tests used:
RNase A [1] = target: T1, RNase A (Bos taurus, UniProt P61823); test: RNaseAlert assay of RNase A inactivation with CTAB and DTT after sequestration by HP-βCD; type: biochemical; conditions: for RNase A inactivation, activity upon sequestration of the detergent: 68° C.; for RNase A activity after CTAB sequestration by 4% HP-βCD: 20 ng RNase A, various temperatures
T1 sequence (P61823 27-150): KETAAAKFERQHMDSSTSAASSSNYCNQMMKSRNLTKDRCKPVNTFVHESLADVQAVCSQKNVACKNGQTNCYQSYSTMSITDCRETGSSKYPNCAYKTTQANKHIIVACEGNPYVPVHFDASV
Procedure: FIG. 7 depicts data related to the effect of DTT on the irreversibility of RNase A inactivation in the presence of CTAB at various temperatures. To simulate authentic reaction conditions, standard APA reaction reagents lacking 9° Nm™ DNA polymerase but containing 4% HP-βCD were prepared in a lyophilized format. The lyophilized reagents also contained the RNaseAlert® assay substrate, a synthetic quenched RNA probe which releases fluorescence in the presence of active RNase A. Reagents were preincubated 2 minutes and dissolved at the indicated temperatures with […] solutions containing 20 ng RNase A ([…]) with (dotted lines) or without (shapes) 10 mM DTT which had also been preincubated at the indicated temperatures on a Bio-Rad CFx thermocycler with programmed temperature gradient.
FIG. 8 depicts data related to effect of DTT and HP-βCD on RNase A inactivation. An RNase Alert assay was used to study the effect of DTT and 0.2% cationic detergent CTAB on RNase inactivation. RNase A was spiked into solutions containing 0.2% CTAB which were then mixed with lyophilized APA reagent pellets lacking enzymes but containing RNase Alert substrate and protective agent (4% HP-0 CD) after preincubation of all solutions at 68° C. followed by fluorescence data collection at 68° C.

RNase A [2] = target: T1, RNase A; test: RNase Alert assay of RNase A activity recovery after SDS/DTT pretreatment; type: biochemical
Procedure: 2 ng RNase A was incubated 2 minutes at 58° C. in […] solutions containing either 10 mM DTT+0.2% SDS (+), 0.2% SDS (triangle), 10 mM DTT (square), or neither (solid line) and then the RNase Alert assay was used to study the recovery of any RNase activity upon sequestration of SDS after dissolving lyophilized APA reagents without enzymes but containing RNase Alert substrate and protective agent (4% βCD) with continued incubation and fluorescence data collection at 58° C. In the presence of RNase activity, the RNase alert indicator substrate releases detectable fluorescence. […] FIG. 11A depicts recovery of RNase A activity after identical pretreatment without addition of βCD, in this case monitoring activity in […] of the solution by transfer to an RNase alert “wet” reaction format. […] Thus, as shown here, simultaneous treatment with ionic detergent and reducing agent is required for successful irreversible inactivation under the conditions described herein. […] Without being bound by any particular theory, this may be related to the impact of cyclodextrin and other APA additives on the refolding process. This example also provides further confirmation that the prior art and currently available methods (e.g, employing a reducing agent but no denaturant) are inadequate under these conditions, with an independent, commercially available RNase assay.

nasal swab ribonucleases = test: Protection of RNA from nasal swab ribonucleases (influenza B RNA APA); type: biochemical, human; conditions: nasal swab eluate 4% of swab; 0.2% SDS with or without 10 mM DTT; 2 minutes at 58° C.; then 4% βCD
RNase A [3] = target: T1, RNase A; test: Influenza B virus APA assay with RNase A in ELB (Elution/Lysis Buffer); type: biochemical; conditions: RNAse A 10 μg/ml; 2 minutes 58° C. in ELB with 0.2% SDS, without or with 10 mM DTT; β-CD 4% final
Procedure: FIGS. 12A-12B depict data related to RNase A inactivation in an influenza B assay like the one in Example 4, with DTT in ELB (Elution/Lysis Buffer). […] After incubation, lyophilized APA reagents co-incubated 2 minutes 58° C., containing β-CD (4% final) were dissolved with the heated solutions, and FAM fluorescence collected every 15 seconds to monitor APA. […] The inclusion of DTT enables unimpeded operation of this POC influenza detection system in a mock sample containing very high level of purified RNase A ([…]). Moreover, while currently available methods can only achieve irreversible ribonuclease inactivation at a maximum 200 ng/ml, the compositions and methods provided herein show utility with 10 μg/ml to accommodate potentially larger amounts in patient samples.

9° Nm™ DNA polymerase [4] = target: T2, 9° Nm™ DNA polymerase (Thermococcus sp., UniProt Q56366, E143D); test: APA amplification of Chlamydia trachomatis DNA with CTAB, with or without HP-βCD; type: biochemical
Procedure: APA reactions containing CAdNTP and sequence-specific molecular beacon detection probes were performed as above in lyophilized (with HP-βCD; FIG. 3B) or wet reactions (no HP-βCD; FIG. 3A) and various amounts of the cationic detergent CTAB, without (“NTC”) or with the addition of 500 copies of C. trachomatis total cell DNA. Activation of CAdNTP by heating 2 minutes at 90° C. was followed by APA at 68° C. with fluorescence collected every 15 seconds.

[5] = cited from earlier work
RNase A [6] = target: T1, RNase A; test: Requirements for irreversible RNase inactivation (influenza B RNA APA in presence of RNase A); type: biochemical; conditions: 500 ng RNase A (10 μg/ml); additions 0.2% SDS, 10 mM DTT, 0.1% Triton X-100 as labelled; 2 minutes at 58° C.; then 4% βCD
[7] = tested on: Chlamydia trachomatis elementary bodies; test: Lysis of Chlamydia trachomatis elementary bodies, read out by APA; conditions: APA reaction mix containing 4% cyclodextrin HP-βCD
Procedure: Elementary body lysis (˜40/reaction) was probed in this example using an APA-based assay. Elementary bodies (Acrometrix) were added to either cold chlamydia transport media (SPD containing sucrose, phosphate buffer, and glutamic acid), TE (Tris-EDTA 10-1), or lysis buffer containing 0.4% SDS, pH 2.2. The samples in TE or SDS were heated 5 minutes at 95° C. (heat lysis) or 2 minutes at 78° C. (SDS lysis), respectively. Then 5 μl (containing 40 elementary bodies) was added to “wet” APA reaction mix as above (pH 7.6 to facilitate isothermal CAdNTP activation) containing 4% cyclodextrin HP-βCD for isothermal APA (68° C.) with fluorescence from a chlamydia-specific molecular beacon collected every 15 seconds.

9° Nm™ DNA polymerase [8] = target: T2, 9° Nm™ DNA polymerase; test: APA amplification of Neisseria gonorrhea DNA with SDS, with or without HPβCD; type: biochemical; conditions: 4% HPβCD, lyophilized reagents, 500 copies N. gonorrhea genomic DNA
Procedure: This example provides SDS complexation analyses of the methods and compositions provided herein. […] Anionic detergent SDS at >0.01% is inhibitory to APA amplification of DNA, but the presence of the protective agent hydroxypropyl β-CD (βCD) allowed amplification to proceed despite≤0.2% SDS. The kinetics of hydroxypropyl β-CD sequestration of SDS were thus sufficiently rapid at a molar ratio of 2:1 (˜14 mM: −7 mM) to prevent 9° Nm™ DNA polymerase inactivation by SDS.
Standard APA reactions with or without 4% Sigma 389145 HPβCD containing “hot-start” CleanAmp™ deoxynucleotides (CAdNTP) and a sequence-specific molecular beacon detection probe were performed with lyophilized ((supplemented with dextran 40, Trehalose), FIG. 2B) or “wet” (no HPβCD, FIG. 2A) reagents including Tris pH 8.4, KCl, MgSO4, and (NH4)2SO4 Triton X-100, 9° Nm™ DNA polymerase, CAdNTP, primers and probe. For the lyophilized reactions, samples were prepared in 50 μl solution containing MgSO4, and (NH4)2SO4 with (shapes) or without (dashed) 500 copies of N. gonorrhea genomic DNA. After dried reagents were dissolved with the samples, various amounts of SDS were added, as indicated, and solutions were vortexed. For the wet reactions, 45 μl master mix containing all reaction components was added to 5 μl sample containing 1OX SDS (final concentration as indicated), with and without 500 copies of N. gonorrhea genomic DNA. Activation of CAdNTP by 2 minutes 90° C. was followed by APA at 68° C. for 10 minutes with detection of the NG amplification product by fluorescence collected every 15 seconds.

influenza B RNA = test: Reverse-transcription APA detection of influenza B RNA with SDS and lyophilized reagents containing cyclodextrin; type: biochemical; conditions: 0.2% SDS lysis solution, 500 IU influenza B RNA, 4% betaCD in lyophilized reagents
Procedure: APA was performed with lyophilized reagents (including β-cyclodextrin, dNTPs, 35 units reverse transcriptase, KCl, EGTA (or EDTA), Tx-100, Tween 80, poly rA, Tris pH8.4, dextran 40k, 4% betaCD, trehalose, primers, probe, 9° Nml™)
After two minutes at 58° C. (to facilitate reverse transcription) the temperature was raised to 68° C. for APA and fluorescence detection.

9° Nm™ DNA polymerase [9] = target: T2, 9° Nm™ DNA polymerase; test: Order-of-addition assay (APA of S. enterica DNA, SDS and hydroxypropyl β-CD); type: biochemical; conditions: 4% hydroxypropyl β-CD added prior to 0.4% SDS
Procedure: Order-of-addition assay: Detection time dependent on cyclodextrin addition prior to brief interaction of enzymes with SDS. Since SDS rapidly and irreversibly inactivated 9° Nm™ DNA polymerase, when the enzyme is instead simultaneously exposed to SDS and β-CD, the kinetics of complexation of the latter two substances must be very rapid, compared with the rate of interaction between SDS and the enzyme.
FIG. 6 depicts data related to detection of S. enterica DNA target (50,000 copies) by APA reactions in a wet “hot-start” format mediated by CleanAmp™ deoxynucleotides (CAdNTP) containing Tris pH7.6, KCl, (NH4)2SO4, MgSO4, Triton X-100, SYBRI, CAdNTP, 9° Nm™ DNA polymerase, with additions of 0.4% SDS (X), 4% hydroxypropyl β-CD (squares), SDS then immediately β-CD (circles), or β-CD then SDS (solid line) with mixing. Control (ctrl dotted line) was no additions. All samples included DNA target. Isothermal APA was at 68° C., collecting intercalating dye fluorescence every 15 seconds to monitor all exponential DNA amplification. […] Negative controls for each condition without S. enterica DNA confirmed specificity of indicated amplification products (not shown).

T2 sequence (Q56366 whole entry E143D): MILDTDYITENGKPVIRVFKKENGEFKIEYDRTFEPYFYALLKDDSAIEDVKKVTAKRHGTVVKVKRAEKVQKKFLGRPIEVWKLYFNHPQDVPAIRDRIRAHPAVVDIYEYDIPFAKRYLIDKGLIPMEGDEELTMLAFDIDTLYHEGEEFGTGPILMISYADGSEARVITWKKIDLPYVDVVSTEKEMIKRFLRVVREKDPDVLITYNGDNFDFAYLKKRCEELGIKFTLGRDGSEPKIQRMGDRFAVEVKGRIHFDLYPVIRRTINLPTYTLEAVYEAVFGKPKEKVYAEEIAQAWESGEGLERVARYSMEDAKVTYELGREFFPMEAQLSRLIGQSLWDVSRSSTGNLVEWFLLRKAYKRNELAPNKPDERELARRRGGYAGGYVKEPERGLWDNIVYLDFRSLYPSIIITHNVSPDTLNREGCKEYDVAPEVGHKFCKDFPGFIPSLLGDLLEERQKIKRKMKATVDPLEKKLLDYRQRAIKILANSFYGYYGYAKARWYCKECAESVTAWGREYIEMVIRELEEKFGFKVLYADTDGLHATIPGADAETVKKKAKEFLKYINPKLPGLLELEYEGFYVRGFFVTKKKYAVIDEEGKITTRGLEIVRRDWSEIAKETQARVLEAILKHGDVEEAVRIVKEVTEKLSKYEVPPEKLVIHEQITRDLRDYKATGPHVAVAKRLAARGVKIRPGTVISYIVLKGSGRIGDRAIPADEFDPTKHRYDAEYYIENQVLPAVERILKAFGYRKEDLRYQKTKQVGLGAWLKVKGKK

## O[C@H](CS)[C@H](O)CS (racemic) [DTT, dithiothreitol]
RNase A [1]; 0.2% CTAB with 10 mM DTT, 4% HP-βCD
  RNase A inactivation, activity upon sequestration of the detergent: effectively irreversibly inactivated
RNase A [1]; with 10 mM DTT
  RNase A activity after CTAB sequestration by 4% HP-βCD: no restored activity was detected
RNase A [2]; 2 ng RNase A, 2 minutes at 58° C., 10 mM DTT and/or 0.2% SDS, then 4% βCD
  Recovery of RNase A activity after pretreatment, with βCD: virtually full recovery of enzyme activity
RNase A [2]; 10 mM DTT alone, wet RNase alert format
  Recovery of RNase A activity after pretreatment, without addition of βCD: did not impact recovery of RNase A activity
Nasal swab ribonucleases
  Influenza B RNA detection after nasal swab eluate pretreatment and SDS sequestration: restored detection
RNase A [3]
  Influenza B virus APA performance in presence of RNAse A: performance equivalent to a no RNAse A control

## CCCCCCCCCCCCCCCC[N+](C)(C)C.[Br-] [CTAB, cetyltrimethylammonium bromide]
RNase A [1]; 0.2% CTAB only, RNase A 10 μg/ml and 1 μg/ml
  RNase A inactivation, activity upon sequestration of the detergent: activity was rapidly restored
RNase A [1]; without DTT
  RNase A activity after CTAB sequestration by 4% HP-βCD: immediate reversibility
9° Nm™ DNA polymerase [4]; absence of HP-βCD, 500 copies C. trachomatis total cell DNA
  CTAB concentration giving complete inactivation of APA: > 0.01%

## OC[C@H]1O[C@@H]2O[C@H]3[C@H](O)[C@@H](O)[C@@H](O[C@H]4[C@H](O)[C@@H](O)[C@@H](O[C@H]5[C@H](O)[C@@H](O)[C@@H](O[C@H]6[C@H](O)[C@@H](O)[C@@H](O[C@H]7[C@H](O)[C@@H](O)[C@@H](O[C@H]1[C@H](O)[C@H]2O)O[C@@H]7CO)O[C@@H]6CO)O[C@@H]5CO)O[C@@H]4CO)O[C@@H]3CO [α-Cyclodextrin]
[5]
  water solubility: 50 mg/mL (≈ 51.4 mM)

## Triton X-100
RNase A [6]
  Influenza B RNA detection by APA after RNase A pretreatment: no RNA detection

## hydroxypropyl-β-cyclodextrin [HP-βCD]
9° Nm™ DNA polymerase [4]; with HP-βCD, lyophilized reactions
  CTAB concentration completely tolerated by APA in presence of the protectant: at least 0.2%
[7]
  Impact of persisting 0.4% ionic detergent on 9° Nm™ DNA polymerase-mediated amplification: had no impact
9° Nm™ DNA polymerase [8]
  SDS concentration tolerated by APA amplification in presence of the protective agent: at least 0.2%
9° Nm™ DNA polymerase [8]; listed as hydroxypropyl β-CD
  SDS concentration tolerated by APA amplification in presence of the protective agent: ≤ 0.2%
Influenza B RNA
  Restoration of assay performance in the presence of SDS: virtually complete restoration of assay performance
9° Nm™ DNA polymerase [9]
  Effect on APA amplification: restoring detection time, although with reduced plateau
